In patent US9695155B2, “Herbicidal substituted pyrimidinyloxy benzene compounds” (E. I. DU PONT DE NEMOURS AND COMPANY, priority 2013, dated 2017):

Experiments:
[1] = system: Heteranthera limosa; test: Test B flooded paddy test; format: in vivo; conditions: Flood, 250 g ai/ha, 0 to 100 scale where 0 is no effect and 100 is complete control
In short: (§1)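 Visual ratings on a 0 to 100 scale, where 100 means complete control, compared treated plants with controls after 13 to 15 days in a greenhouse. Treatment went into paddy water 3 cm deep over the soil, applied to plants at the 2-leaf stage.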

[2] = system: corn; test: Test A preemergence; format: in vivo, Zea mays
In short: (§2)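 Pre- and postemergence greenhouse screen. Soil: loam + sand. Spray carrier: solvent mixture, non-phytotoxic, with surfactant. Post timing at 1–2 leaves, height 2–10 cm. Readout: visual injury on a 0–100 scale roughly 10 days after application, untreated plants as reference.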

[3] = system: pigweed; test: Test C preemergence; format: in vivo, Amaranthus retroflexus
Excerpt: (§3) Seeds of plant species selected from blackgrass (Alopecurus myosuroides), Italian ryegrass (Lolium multiflorum), wheat, winter (winter wheat, Triticum aestivum), galium (catchweed bedstraw, Galium aparine), corn (Zea mays), large (Lg) crabgrass (Digitaria sanguinalis), giant foxtail (Setaria faberii), johnsongrass (Sorghum halepense), lambsquarters (Chenopodium album), morningglory (Ipomoea coccinea), yellow nutsedge (Cyperus esculentus), pigweed (Amaranthus retroflexus), ragweed (common ragweed, Ambrosia elatior), soybean (Glycine max), barnyardgrass (Echinochloa crus-galli), oilseed rape (Brassica napus), waterhemp (common waterhemp, Amaranthus rudis), kochia (Kochia scoparia), wild oat (Avena fatua), surinam grass (Brachiaria decumbens), foxtail, green (green foxtail, Setaria viridis), goosegrass (Eleusine indica), bromegrass, downy (downy bromegrass, Bromus tectorum), nightshade (eastern black nightshade, Solanum ptycanthum), cocklebur (common cocklebur, Xanthium strumarium), cupgrass, woolly (woolly cupgrass, Eriochloa villosa), bermudagrass (Cynodon dactylon), sunflower, (common oilseed sunflower, Helianthus annuus), Russian thistle (Salsola kali), and velvetleaf (Abutilon theophrasti) were planted into a blend of loam soil and sand and treated preemergence with test chemicals formulated in a non-phytotoxic solvent mixture which included a surfactant.
(§4) At the same time, plants selected from these crop and weed species and also barley, winter (winter barley, Hordeum vulgare), windgrass (Apera spica-venti), chickweed (common chickweed, Stellaria media), deadnettle (henbit deadnettle, Lamium amplexicaule), and canarygrass (littleseed canarygrass, Phalaris minor) were planted in pots containing Redi-Earth® planting medium (Scotts Company, 14111 Scottslawn Road, Marysville, Ohio 43041) comprising spaghnum peat moss, vermiculite, wetting agent and starter nutrients and treated with postemergence applications of test chemicals formulated in the same manner. Plants ranged in height from 2 to 18 cm (1- to 4-leaf stage) for postemergence treatments. Treated plants and controls were maintained in a greenhouse for 13 to 15 days, after which time all species were compared to controls and visually evaluated. Plant response ratings, summarized in Table C, are based on a scale of 0 to 100 where 0 is no effect and 100 is complete control. A dash (-) response means no test result.

[4] = system: yellow nutsedge; test: Test C preemergence; format: in vivo, Cyperus esculentus
Excerpt: as §3, §4

[5] = system: wheat, winter; test: Test C preemergence; format: in vivo, Triticum aestivum
Excerpt: as §3, §4

[6] = system: morningglory; test: Test A postemergence; format: in vivo, Ipomoea spp.
In short: as §2

[7] = system: rice; test: Test B flooded paddy test; format: in vivo, Oryza sativa; conditions: Flood, 250 g ai/ha, 0 to 100 scale where 0 is no effect and 100 is complete control
In short: as §1

[8] = system: lambsquarters; test: Test C preemergence; format: in vivo, Chenopodium album
Excerpt: as §3, §4

[9] = 125 g ai/ha, 0 to 100 scale where 0 is no effect and 100 is complete control
[10] = 500 g ai/ha, 0 to 100 scale where 0 is no effect and 100 is complete control
[11] = 16 g ai/ha, preemergence, scale 0 to 100 (0 no effect, 100 complete control)
[12] = 62 g ai/ha, preemergence, scale 0 (no effect) to 100 (complete control)
[13] = 125 g ai/ha, preemergence, scale 0 (no effect) to 100 (complete control)
[14] = Preemergence, 31 g ai/ha, scale 0 to 100, 0 no effect, 100 complete control

Fc1cccc(Oc2ncc(Cl)cn2)c1-n1cc(I)cn1 [Compound 179]
Plant response rating, Ducksalad [1]: 80
Plant response rating, Corn [2, 9]: 0
Corn plant response rating [2, 10]: 10
Pigweed plant response rating [3, 11]: 100
Pigweed plant response rating [3, 12]: 100
Pigweed plant response rating [3, 13]: 100
Nutsedge, Yellow plant response rating [4, 11]: 0
Nutsedge, Yellow plant response rating [4, 12]: 10
Nutsedge, Yellow plant response rating [4, 13]: 15
Wheat plant response rating [5, 11]: 0
Wheat plant response rating [5, 12]: 0
Wheat plant response rating [5, 13]: 5
Morningglory plant response rating [6, 9]: 70
Plant response rating, Morningglory [6, 10]: 100
Plant response rating, Rice [7]: 0
Lambsquarters plant response rating [8, 11]: 85
Lambsquarters plant response rating [8, 12]: 100
Lambsquarters plant response rating [8, 13]: 100

FC(F)(F)c1cnn(-c2ccccc2Oc2ncc(Br)cn2)c1 [Compound 18, 5-bromo-2-[2-[4-(trifluoromethyl)-1H-pyrazol-1-yl]phenoxy]pyrimidine]
pest or weed control at 250 g/ha ([1]; Heteranthera limosa, read-out: Plant response rating, Ducksalad): 90%
Corn plant response rating (crop injury, 0 = no effect, 100 = complete kill) at 125 g/ha ([2]; Zea mays, pre-emergence, 240 h, 125 g ai/ha, 0 to 100 scale where 0 is no effect and 100 is complete control): 0%
plant injury at 500 g/ha ([2]; Zea mays, pre-emergence, 240 h, 500 g ai/ha, 0 to 100 scale, 0 no effect, 100 complete control, approx. 10 days, read-out: Corn plant response rating): 10%
pest or weed control at 62 g/ha ([3]; Amaranthus retroflexus, pre-emergence, 62 g ai/ha, preemergence, scale 0 (no effect) to 100 (complete control), read-out: Pigweed plant response rating): 100%
pest or weed control at 125 g/ha ([3]; Amaranthus retroflexus, pre-emergence, 125 g ai/ha, preemergence, scale 0 (no effect) to 100 (complete control), read-out: Pigweed plant response rating): 100%
pest or weed control at 250 g/ha ([3]; Amaranthus retroflexus, pre-emergence, 250 g ai/ha, preemergence, scale 0 (no effect) to 100 (complete control), read-out: Pigweed plant response rating): 100%
pest or weed control at 31 g/ha ([3]; Amaranthus retroflexus, pre-emergence, Preemergence, 31 g ai/ha, scale 0 to 100, 0 no effect, 100 complete control, read-out: Plant response rating, Pigweed): 100%
pest or weed control at 62 g/ha ([4]; Cyperus, pre-emergence, 62 g ai/ha, preemergence, scale 0 (no effect) to 100 (complete control), read-out: Nutsedge, Yellow plant response rating): 15%
pest or weed control at 125 g/ha ([4]; Cyperus, pre-emergence, 125 g ai/ha, preemergence, scale 0 (no effect) to 100 (complete control), read-out: Nutsedge, Yellow plant response rating): 25%
pest or weed control at 250 g/ha ([4]; Cyperus, pre-emergence, 250 g ai/ha, preemergence, scale 0 (no effect) to 100 (complete control), read-out: Nutsedge, Yellow plant response rating): 35%
pest or weed control at 31 g/ha ([4]; Cyperus, pre-emergence, Preemergence, 31 g ai/ha, scale 0 to 100, 0 no effect, 100 complete control, read-out: Plant response rating, Nutsedge, Yellow): 10%
plant injury at 62 g/ha ([5]; Triticum aestivum, pre-emergence, 62 g ai/ha, preemergence, scale 0 (no effect) to 100 (complete control), read-out: Wheat plant response rating): 5%
plant injury at 125 g/ha ([5]; Triticum aestivum, pre-emergence, 125 g ai/ha, preemergence, scale 0 (no effect) to 100 (complete control), read-out: Wheat plant response rating): 35%
plant injury at 250 g/ha ([5]; Triticum aestivum, pre-emergence, 250 g ai/ha, preemergence, scale 0 (no effect) to 100 (complete control), read-out: Wheat plant response rating): 35%
plant injury at 31 g/ha ([5]; Triticum aestivum, pre-emergence, Preemergence, 31 g ai/ha, scale 0 to 100, 0 no effect, 100 complete control, read-out: Plant response rating, Wheat): 0%
pest or weed control at 125 g/ha ([6]; Ipomoea, post-emergence, 240 h, 125 g ai/ha, 0 to 100 scale where 0 is no effect and 100 is complete control, read-out: Plant response rating, Morningglory): 60%
pest or weed control at 500 g/ha ([6]; Ipomoea, post-emergence, 240 h, 500 g ai/ha, 0 to 100 scale, 0 no effect, 100 complete control, read-out: Plant response rating Morningglory): 100%
plant injury at 250 g/ha ([7]; Oryza sativa, read-out: Plant response rating, Rice): 0%
pest or weed control at 62 g/ha ([8]; Chenopodium album, pre-emergence, 62 g ai/ha, preemergence, scale 0 (no effect) to 100 (complete control), read-out: Lambsquarters plant response rating): 50%
pest or weed control at 125 g/ha ([8]; Chenopodium album, pre-emergence, 125 g ai/ha, preemergence, scale 0 (no effect) to 100 (complete control), read-out: Lambsquarters plant response rating): 65%
pest or weed control at 250 g/ha ([8]; Chenopodium album, pre-emergence, 250 g ai/ha, preemergence, scale 0 (no effect) to 100 (complete control), read-out: Lambsquarters plant response rating): 80%
pest or weed control at 31 g/ha ([8]; Chenopodium album, pre-emergence, Preemergence, 31 g ai/ha, scale 0 to 100, 0 no effect, 100 complete control, read-out: Plant response rating, Lambsquarters): 30%

Fc1cnc(Oc2cccc(C(F)F)c2-n2cc(Br)cn2)nc1 [Compound 112]
Plant response rating, Ducksalad [1]: 90
Plant response rating, Corn [2, 9]: 0
Corn plant response rating ([2]; 500 g ai/ha, 0 to 100 scale, 0 no effect, 100 complete control, approx. 10 days): 50
Pigweed plant response rating [3, 11]: 100
Pigweed plant response rating [3, 12]: 100
Pigweed plant response rating [3, 13]: 100
Plant response rating, Pigweed [3, 14]: 100
Nutsedge, Yellow plant response rating [4, 11]: 0
Nutsedge, Yellow plant response rating [4, 12]: 15
Nutsedge, Yellow plant response rating [4, 13]: 40
Plant response rating, Nutsedge, Yellow [4, 14]: 5
Wheat plant response rating [5, 11]: 0
Wheat plant response rating [5, 12]: 0
Wheat plant response rating [5, 13]: 10
Plant response rating, Wheat [5, 14]: 0
Plant response rating, Morningglory [6, 10]: 100
Plant response rating, Rice [7]: 0
Lambsquarters plant response rating [8, 11]: 98
Lambsquarters plant response rating [8, 12]: 100
Lambsquarters plant response rating [8, 13]: 98
Plant response rating, Lambsquarters [8, 14]: 100
